According to the NIST ThermoML archive (doi:10.1016/j.jct.2008.09.016):
Numbers after ± are expanded uncertainties.

Assay: mn = molality of the nth substance listed, in mol/kg
Settings: 101 kPa, Liquid, Vibrating tube method

O=C([O-])Cc1ccccc1Nc1c(Cl)cccc1Cl.[Na+] [sodium diclofenac] + O
mass density [kg/m3]
Settings | m1 = 0.0075 | m1 = 0.0076 | m1 = 0.01 | m1 = 0.0125 | m1 = 0.0152 | m1 = 0.0175 | m1 = 0.02 | m1 = 0.025
293.15 K | – | 998.331 ± 0.084 | 998.385 ± 0.084 | 998.445 ± 0.085 | 998.525 ± 0.087 | 998.605 ± 0.088 | 998.695 ± 0.091 | 998.911 ± 0.092
298.15 K | – | 997.159 ± 0.099 | 997.215 ± 0.084 | 997.261 ± 0.084 | 997.325 ± 0.086 | 997.405 ± 0.09 | 997.505 ± 0.092 | 997.691 ± 0.084
303.15 K | – | 995.745 ± 0.095 | 995.795 ± 0.085 | 995.851 ± 0.085 | 995.905 ± 0.085 | 995.973 ± 0.089 | 996.075 ± 0.09 | 996.239 ± 0.084
308.15 K | – | 994.125 ± 0.09 | 994.175 ± 0.085 | 994.221 ± 0.085 | 994.294 ± 0.086 | 994.351 ± 0.088 | 994.436 ± 0.09 | 994.595 ± 0.086
310.15 K | – | 993.388 ± 0.084 | 993.424 ± 0.084 | 993.475 ± 0.086 | 993.541 ± 0.086 | 993.591 ± 0.086 | 993.661 ± 0.09 | 993.851 ± 0.091
313.15 K | 992.285 ± 0.084 | – | 992.325 ± 0.085 | 992.375 ± 0.085 | 992.428 ± 0.086 | 992.481 ± 0.086 | 992.545 ± 0.089 | 992.725 ± 0.091
